Source: patent US20170198337A1, “HIGH THROUGHPUT TELOMERIC CIRCLE ASSAY” (SENS FOUNDATION, INC., priority 2014, published 2017)

Assays:
ALT-positive cell lines = assay: CC EATR assay, C-circle content of cells treated with hydroxyurea, 96-well plates; assay type: cell-based, human; details: high-throughput format, FIG. 14
Protocol: FIG. 14 depicts the detection of experimentally modulated ALT levels using the CC EATR assay. Treatment of cells with hydroxyurea (HU) decreases ALT levels. […] This experiment was performed in a high-throughput format in a 96-well plates.
For the fluorescence-based detection of RCA-mediated, CC-derived products (FIGS. 3 and 4, illustrating exonuclease digestion from the 5′ or 3′ terminus, respectively), 20 μL of each sample post-RCA (a single reaction per sample) was combined with 20 μL of 0.1 mg/ml BSA, 3 mM DTT, 0.05% Tween, 10 mM Bis-Tris-Propane-HCl, 10 mM MgCl2 (final pH 7.0 at 25 degrees C.), 2.5 U of Exonuclease III or 10 U of T7 Exonuclease (NEB), and 100 nM of (CCCTAA)2 probe labeled at the 5′ end with a 6-Carboxyfluorescein (FAM) fluorophore and a ZEN internal quencher (Integrated DNA Technologies) at the first T position. […] Fluorescence signals were collected using Applied Biosystems StepOnePlus Real-Time PCR system configured to acquire data from FAM/FITC filter sets and the reaction was run at 37° C. for 1 hour with signal being collected at 0 min and then every 15 min thereafter. […]
On day 0, passage 50 U2OS cells were seeded into a 10 cm plate, a 6 well plate, a 24 well plate and a 96 well plate at quantities of 5×10^5, 3×10^5, 1×10^4 and 1×10^4 per well respectively. […]

ALT-positive cells = details: reported in the literature; cited from earlier work

Which results are given for `NC(=O)NO` [hydroxyurea]?
C-circle content of ALT-positive cell lines after HU treatment (ALT-positive cell lines): significant decreases; ALT activity of ALT-positive cells upon treatment (ALT-positive cells): decreased ALT activity
